Molecules are shown by their SMILES. Where only a bound is given, the exact number is not on record here.

As usually defined, the EC50 is the midpoint of the concentration-response curve. Usually IC50 stands for the concentration that gives 50% inhibition. Higher therefore signals a need for much substance.

The target in assay [1] is T1, Melanocortin receptor 3 (Homo sapiens, UniProt P41968). Nature of the assay: Agonist activity at human MC3R expressed in HEK293 cells assessed as maximal intracellular cAMP accumulation by fluorescence based analysis. In kind it is functional, cell-based. (Changes in cAMP serve as a functional read-out for many G protein-coupled receptors.)
T1 sequence (P41968 whole entry): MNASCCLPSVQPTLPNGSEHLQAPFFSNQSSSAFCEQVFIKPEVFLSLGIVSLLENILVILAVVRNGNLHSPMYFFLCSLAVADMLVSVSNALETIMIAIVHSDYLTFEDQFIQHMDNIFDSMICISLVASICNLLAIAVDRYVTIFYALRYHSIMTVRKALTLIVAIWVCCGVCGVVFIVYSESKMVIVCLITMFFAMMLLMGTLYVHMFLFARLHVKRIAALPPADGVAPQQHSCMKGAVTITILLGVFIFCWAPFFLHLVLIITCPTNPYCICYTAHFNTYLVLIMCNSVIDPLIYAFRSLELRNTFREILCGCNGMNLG
Assay [2] deals with T2, Melanocortin receptor 5 (Homo sapiens, UniProt P33032). Nature of the assay: Displacement of [125I]NDP-alpha-MSH from human MC5R expressed in HEK293 cells by competitive binding assay. In kind it is cell-based.
T2 sequence (P33032 whole entry): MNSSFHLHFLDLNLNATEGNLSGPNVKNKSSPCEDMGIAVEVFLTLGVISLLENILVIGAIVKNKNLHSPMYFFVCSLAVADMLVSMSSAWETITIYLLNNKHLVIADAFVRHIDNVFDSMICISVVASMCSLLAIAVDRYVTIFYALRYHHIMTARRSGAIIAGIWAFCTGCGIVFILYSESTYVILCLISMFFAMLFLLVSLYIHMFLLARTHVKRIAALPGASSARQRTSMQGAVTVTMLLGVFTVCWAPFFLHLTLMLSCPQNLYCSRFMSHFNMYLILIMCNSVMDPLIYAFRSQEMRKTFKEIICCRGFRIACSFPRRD
Assay [3] deals with T3, Melanocortin receptor 4 (Homo sapiens, UniProt P32245). Description: Agonist activity at human MC4R expressed in HEK293 cells assessed as maximal intracellular cAMP accumulation by fluorescence based analysis. In kind it is functional, cell-based.
T3 sequence (P32245 whole entry): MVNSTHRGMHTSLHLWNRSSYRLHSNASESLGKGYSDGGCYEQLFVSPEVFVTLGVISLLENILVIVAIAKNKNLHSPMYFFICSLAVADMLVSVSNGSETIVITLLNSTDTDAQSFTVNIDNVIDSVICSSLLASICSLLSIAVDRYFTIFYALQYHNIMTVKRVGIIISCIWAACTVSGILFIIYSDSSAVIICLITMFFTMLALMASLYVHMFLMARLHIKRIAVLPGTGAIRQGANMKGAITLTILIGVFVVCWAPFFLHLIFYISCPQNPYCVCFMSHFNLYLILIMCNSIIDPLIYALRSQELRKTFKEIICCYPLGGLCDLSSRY
Assay [4] concerns the target T4, Melanocyte-stimulating hormone receptor (Homo sapiens, UniProt Q01726). Nature of the assay: Agonist activity at human MC1R expressed in HEK293 cells assessed as maximal intracellular cAMP accumulation by fluorescence based analysis. The class given is functional, cell-based.
Target sequence in this assay (Q01726 whole entry): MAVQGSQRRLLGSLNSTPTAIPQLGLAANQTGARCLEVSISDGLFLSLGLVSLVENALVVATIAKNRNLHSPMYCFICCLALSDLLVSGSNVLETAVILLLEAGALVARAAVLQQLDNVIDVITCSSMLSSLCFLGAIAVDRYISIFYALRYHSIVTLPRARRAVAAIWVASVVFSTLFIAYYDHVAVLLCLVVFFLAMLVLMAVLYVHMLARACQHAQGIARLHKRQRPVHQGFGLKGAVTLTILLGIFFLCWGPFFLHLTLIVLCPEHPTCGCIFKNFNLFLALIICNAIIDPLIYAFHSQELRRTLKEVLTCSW
Assay [5] concerns the target T1, Melanocortin receptor 3. Nature of the assay: Agonist activity at human MC3R expressed in HEK293 cells assessed as maximal intracellular cAMP accumulation at 10 uM by fluorescence based analysis relative to control. The class given is functional, cell-based. Conditions: filed as agonist.
For assay [6], the target named is T2, Melanocortin receptor 5. Nature of the assay: Agonist activity at human MC5R expressed in HEK293 cells assessed as maximal intracellular cAMP accumulation at 10 uM by fluorescence based analysis relative to control. Particulars: filed as agonist. The class given is functional, cell-based.
Assay [7] addresses T1, Melanocortin receptor 3. Nature of the assay: Displacement of [125I]NDP-alpha-MSH from human MC3R expressed in HEK293 cells by competitive binding assay. In kind it is cell-based. On the technique in general: Loss of bound radioactivity is the signal in a displacement assay; it reports binding, not function.
Assay [8] concerns the target T3, Melanocortin receptor 4. Nature of the assay: Displacement of [125I]NDP-alpha-MSH from human MC4R expressed in HEK293 cells by competitive binding assay. In kind it is cell-based.
Assay [9] has as its target T4, Melanocyte-stimulating hormone receptor. Nature of the assay: Agonist activity at human MC1R expressed in HEK293 cells assessed as maximal intracellular cAMP accumulation at 10 uM by fluorescence based analysis relative to control. Conditions: filed as agonist. In kind it is functional, cell-based.
Target sequence in this assay (Q01726 whole entry, looked up): as the sequence (Q01726 whole entry) above
Assay [10] has the same target. Nature of the assay: Displacement of [125I]NDP-alpha-MSH from human MC1R expressed in HEK293 cells by competitive binding assay. In kind it is cell-based.
Target sequence in this assay (Q01726 whole entry): as above
The target in assay [11] is T2, Melanocortin receptor 5. Nature of the assay: Agonist activity at human MC5R expressed in HEK293 cells assessed as maximal intracellular cAMP accumulation by fluorescence based analysis. The class given is functional, cell-based.
In assay [12] the target is T2, Melanocortin receptor 5. Description: Agonist activity at human MC5R expressed in HEK293 cells assessed as cAMP accumulation at 10 uM by fluorescence based analysis relative to control. In kind it is functional, cell-based.

As to `CCCC[C@H](NC(C)=O)C(=O)N[C@H]1CSCc2ccccc2CSC[C@@H](C(N)=O)NC(=O)[C@H](Cc2c[nH]c3ccccc23)NC(=O)[C@H](CCCNC(=N)N)NC(=O)[C@@H](Cc2ccccc2)NC(=O)[C@H](Cc2c[nH]cn2)NC1=O`, the concentration for a half-maximal effect (EC50) was more than 1 µM in [1], 0.36 µM in [3], 0.107 µM in [4] and more than 1 µM in [11]. The concentration for half-maximal inhibition (IC50) in [2] turned out to be 0.078 µM; in assay [7], 0.302 µM; in assay [8] it was 0.0091 µM; in [10] it was 0.275 µM. In addition, the Activity in [5], in [6] and in [9] was 100% in each case.
As to `CCCC[C@H](NC(C)=O)C(=O)N[C@@H]1C(=O)N[C@@H](Cc2c[nH]cn2)C(=O)N[C@H](Cc2ccccc2)C(=O)N[C@@H](CCCNC(=N)N)C(=O)N[C@@H](Cc2c[nH]c3ccccc23)C(=O)N[C@H](C(N)=O)C(C)(C)SCc2cccc(c2)CSC1(C)C`, the 50% inhibitory concentration (IC50) is 0.172 µM in [2], 0.45 µM in assay [7], more than 1 µM in assay [8] and 0.45 µM in assay [10].
As to `CCCC[C@H](NC(C)=O)C(=O)N[C@@H]1C(=O)N[C@@H](Cc2c[nH]cn2)C(=O)N[C@H](Cc2ccccc2)C(=O)N[C@@H](CCCNC(=N)N)C(=O)N[C@@H](Cc2c[nH]c3ccccc23)C(=O)N[C@H](C(N)=O)CSCc2cccc(c2)CSC1(C)C`, the 50% effective concentration (EC50) in [1] is 0.0094 µM; in assay [3], 0.618 µM; in [4], more than 1 µM; in assay [11], 0.126 µM. Further, the IC50 in assay [2] was 0.0935 µM; in assay [7] it was 0.244 µM; in assay [8], 0.628 µM; in assay [10], 0.07 µM. Further, the Activity in assay [5], in [6] and in assay [9] was 100% throughout.
Turning to `CCCC[C@H](NC(C)=O)C(=O)N[C@H]1CSCc2ccc(cc2)CSC(C)(C)[C@@H](C(N)=O)NC(=O)[C@H](Cc2c[nH]c3ccccc23)NC(=O)[C@H](CCCNC(=N)N)NC(=O)[C@@H](Cc2ccccc2)NC(=O)[C@H](Cc2c[nH]cn2)NC1=O`, the concentration for a half-maximal effect (EC50) in [1] turned out to be 0.246 µM; in assay [3] it was 0.219 µM; in [4], 0.003 µM; in [11], 0.048 µM. The IC50 in [2] came out at 0.069 µM; in assay [7], 0.064 µM; in assay [8], 0.0572 µM; in assay [10], 0.019 µM. Also, the Activity in assay [5], in assay [6] and in [9] was 100% each time.
As for `CCCC[C@H](NC(C)=O)C(=O)N[C@@H]1C(=O)N[C@@H](Cc2c[nH]cn2)C(=O)N[C@H](Cc2ccccc2)C(=O)N[C@@H](CCCNC(=N)N)C(=O)N[C@@H](Cc2c[nH]c3ccccc23)C(=O)N[C@H](C(N)=O)CSCc2ccc(cc2)CSC1(C)C`, the IC50 in assay [2] is 0.422 µM; in assay [7] it was more than 1 µM; in assay [8] it was more than 1 µM; in [10] it was 0.227 µM.
Take `CCCC[C@H](NC(C)=O)C(=O)N[C@@H]1C(=O)N[C@@H](Cc2c[nH]cn2)C(=O)N[C@H](Cc2ccccc2)C(=O)N[C@@H](CCCNC(=N)N)C(=O)N[C@@H](Cc2c[nH]c3ccccc23)C(=O)N[C@H](C(N)=O)C(C)(C)SCc2ccccc2CSC1(C)C`: the IC50 in assay [2] is 0.507 µM; in assay [7], 0.452 µM; in assay [8], more than 1 µM; in [10] it was 0.553 µM.
As for `CCCC[C@H](NC(C)=O)C(=O)N[C@@H]1C(=O)N[C@@H](Cc2c[nH]cn2)C(=O)N[C@H](Cc2ccccc2)C(=O)N[C@@H](CCCNC(=N)N)C(=O)N[C@@H](Cc2c[nH]c3ccccc23)C(=O)N[C@H](C(N)=O)C(C)(C)SCc2ccc(cc2)CSC1(C)C`, the IC50 in [2], in assay [7], in assay [8] and in assay [10] was more than 1 µM each time.
`CCCC[C@H](NC(C)=O)C(=O)N[C@H]1CSCc2cccc(c2)CSC[C@@H](C(N)=O)NC(=O)[C@H](Cc2c[nH]c3ccccc23)NC(=O)[C@H](CCCNC(=N)N)NC(=O)[C@@H](Cc2ccccc2)NC(=O)[C@H](Cc2c[nH]cn2)NC1=O`: the 50% effective concentration (EC50) in assay [1] was 0.902 µM; in assay [4], 0.003 µM; in [11], more than 1 µM. Moreover, the figures for the IC50 in [2], in assay [7] and in assay [10] were 0.0044 µM, 0.032 µM and 0.0035 µM, respectively.
Turning to `CCCC[C@H](NC(C)=O)C(=O)N[C@@H]1C(=O)N[C@@H](Cc2c[nH]cn2)C(=O)N[C@H](Cc2ccccc2)C(=O)N[C@@H](CCCNC(=N)N)C(=O)N[C@@H](Cc2c[nH]c3ccccc23)C(=O)N[C@H](C(N)=O)CSCc2ccccc2CSC1(C)C`, the IC50 turned out to be 0.157 µM in assay [2], 0.222 µM in assay [7], 0.619 µM in [8] and 0.15 µM in assay [10].
As for `CCCC[C@H](NC(C)=O)C(=O)N[C@H]1CSCc2cccc(c2)CSC(C)(C)[C@@H](C(N)=O)NC(=O)[C@H](Cc2c[nH]c3ccccc23)NC(=O)[C@H](CCCNC(=N)N)NC(=O)[C@@H](Cc2ccccc2)NC(=O)[C@H](Cc2c[nH]cn2)NC1=O`, the EC50 in [1] is 0.435 µM; in assay [4] it was 0.0065 µM; in assay [11], more than 1 µM. Further, the figures for the IC50 in [2], in [7] and in [10] were 0.03 µM, 0.071 µM and 0.009 µM, respectively.
With `CCCC[C@H](NC(C)=O)C(=O)N[C@H]1CSCc2ccc(cc2)CSC[C@@H](C(N)=O)NC(=O)[C@H](Cc2c[nH]c3ccccc23)NC(=O)[C@H](CCCNC(=N)N)NC(=O)[C@@H](Cc2ccccc2)NC(=O)[C@H](Cc2c[nH]cn2)NC1=O`, the values for the EC50 in assay [1], in [4] and in assay [11] were 0.645 µM, 0.004 µM and more than 1 µM, respectively. Besides, the results for the IC50 in assay [2], in assay [7] and in assay [10] were 0.002 µM, 0.024 µM and 0.0073 µM, respectively.
As for `CCCC[C@H](NC(C)=O)C(=O)N[C@H]1CSCc2ccccc2CSC(C)(C)[C@@H](C(N)=O)NC(=O)[C@H](Cc2c[nH]c3ccccc23)NC(=O)[C@H](CCCNC(=N)N)NC(=O)[C@@H](Cc2ccccc2)NC(=O)[C@H](Cc2c[nH]cn2)NC1=O`, the EC50 in assay [1] is more than 1 µM; in assay [3] it was more than 1 µM; in assay [4], 0.0061 µM. The Activity amounted to 0% in assay [12], 100% in assay [5], 100% in [6] and 100% in assay [9]. Besides, the IC50 in assay [2] was 0.046 µM; in assay [7], 0.074 µM; in assay [8], 0.0458 µM; in [10] it was 0.044 µM.

These data come from ChEMBL document CHEMBL5154752, “CLIPSing Melanotan-II to Discover Multiple Functionally Selective hMCR Agonists” (J Med Chem, 2022).
